Measurements published in the kinase profiling compilation of Christmann-Franck et al. (2016).

Assays:
Assay in all cases: KINOMEscan competition binding
Settings in all cases: compound 10.0 µM
[1] = system: ABL1 (human), P00519 [Q252H]
[2] = system: ABL1 (human), P00519 [T315I]
[3] = biological target: ACVR1B (human) (UniProt P36896)
[4] = biological target: AKT3 (human) (UniProt Q9Y243)
[5] = biological target: ANKK1 (human) (UniProt Q8NFD2)
[6] = biological target: CDC42BPA (human) (UniProt Q5VT25)
[7] = biological target: CDK8 (human) (UniProt P49336)
Sequence of CDK8 (human) (P49336 whole entry, looked up): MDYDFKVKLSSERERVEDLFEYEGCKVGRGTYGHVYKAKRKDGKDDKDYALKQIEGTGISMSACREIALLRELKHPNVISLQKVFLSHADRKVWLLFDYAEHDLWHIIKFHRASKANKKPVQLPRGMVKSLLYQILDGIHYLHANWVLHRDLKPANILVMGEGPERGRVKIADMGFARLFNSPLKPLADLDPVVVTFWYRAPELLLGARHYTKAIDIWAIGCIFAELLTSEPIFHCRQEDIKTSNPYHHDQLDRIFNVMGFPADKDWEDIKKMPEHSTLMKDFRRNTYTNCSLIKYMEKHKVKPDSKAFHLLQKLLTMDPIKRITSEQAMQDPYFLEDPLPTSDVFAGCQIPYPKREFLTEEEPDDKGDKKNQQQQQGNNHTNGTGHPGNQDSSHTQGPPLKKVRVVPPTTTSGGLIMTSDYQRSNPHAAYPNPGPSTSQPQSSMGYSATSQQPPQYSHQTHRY

[8] = biological target: CSNK1A1L (human) (UniProt Q8N752)
[9] = biological target: DDR1 (human) (UniProt Q08345)
[10] = system: EGFR (human), P00533 [L858R]
[11] = biological target: EPHA5 (human) (UniProt P54756)
[12] = biological target: EPHB4 (human) (UniProt P54760)
[13] = biological target: ERBB2 (human) (UniProt P04626)
[14] = biological target: FGFR1 (human) (UniProt P11362)
[15] = biological target: FGFR2 (human) (UniProt P21802)
[16] = biological target: JAK1 JH1 catalytic (human) (UniProt P23458)
[17] = biological target: LCK (human) (UniProt P06239)
[18] = biological target: MAP2K1 (human) (UniProt Q02750)
[19] = biological target: MAP3K3 (human) (UniProt Q99759)
[20] = biological target: MAPK1 (human) (UniProt P28482)
[21] = biological target: MAPK9 (human) (UniProt P45984)
Sequence of MAPK9 (human) (P45984 whole entry, looked up): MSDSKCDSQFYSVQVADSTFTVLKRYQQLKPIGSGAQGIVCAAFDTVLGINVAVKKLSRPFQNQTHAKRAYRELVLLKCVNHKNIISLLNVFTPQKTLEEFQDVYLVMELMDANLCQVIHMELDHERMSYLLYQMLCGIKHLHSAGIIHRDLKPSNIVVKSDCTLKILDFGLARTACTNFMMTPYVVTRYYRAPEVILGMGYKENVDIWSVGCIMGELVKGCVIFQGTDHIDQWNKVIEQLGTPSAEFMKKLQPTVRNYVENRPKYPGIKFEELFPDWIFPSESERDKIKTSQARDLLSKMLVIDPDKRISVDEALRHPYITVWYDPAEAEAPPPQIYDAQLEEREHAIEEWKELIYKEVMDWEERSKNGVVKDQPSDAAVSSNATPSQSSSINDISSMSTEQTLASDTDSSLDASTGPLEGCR

[22] = biological target: MARK2 (human) (UniProt Q7KZI7)
[23] = biological target: MARK4 (human) (UniProt Q96L34)
[24] = biological target: MLTK (human) (UniProt Q9NYL2)
[25] = biological target: MST4 (human) (UniProt Q9P289)
[26] = biological target: MYLK2 (human) (UniProt Q9H1R3)
Sequence of MYLK2 (human) (Q9H1R3 whole entry, looked up): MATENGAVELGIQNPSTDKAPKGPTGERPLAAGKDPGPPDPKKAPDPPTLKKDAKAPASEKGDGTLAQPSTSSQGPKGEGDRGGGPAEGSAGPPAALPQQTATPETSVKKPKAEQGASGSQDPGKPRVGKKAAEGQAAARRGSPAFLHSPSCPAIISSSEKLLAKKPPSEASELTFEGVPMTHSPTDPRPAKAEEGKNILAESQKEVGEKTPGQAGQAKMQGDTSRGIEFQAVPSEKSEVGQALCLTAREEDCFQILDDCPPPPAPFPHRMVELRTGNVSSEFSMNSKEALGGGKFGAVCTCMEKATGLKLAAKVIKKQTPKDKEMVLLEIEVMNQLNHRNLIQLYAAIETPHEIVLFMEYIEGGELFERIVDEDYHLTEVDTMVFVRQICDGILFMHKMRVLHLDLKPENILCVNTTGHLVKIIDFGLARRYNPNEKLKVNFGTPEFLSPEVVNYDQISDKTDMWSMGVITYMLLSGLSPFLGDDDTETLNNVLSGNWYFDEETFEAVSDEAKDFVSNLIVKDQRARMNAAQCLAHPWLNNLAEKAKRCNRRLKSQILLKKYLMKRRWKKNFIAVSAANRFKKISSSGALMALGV

[27] = biological target: NEK1 (human) (UniProt Q96PY6)
Sequence of NEK1 (human) (Q96PY6 whole entry, looked up): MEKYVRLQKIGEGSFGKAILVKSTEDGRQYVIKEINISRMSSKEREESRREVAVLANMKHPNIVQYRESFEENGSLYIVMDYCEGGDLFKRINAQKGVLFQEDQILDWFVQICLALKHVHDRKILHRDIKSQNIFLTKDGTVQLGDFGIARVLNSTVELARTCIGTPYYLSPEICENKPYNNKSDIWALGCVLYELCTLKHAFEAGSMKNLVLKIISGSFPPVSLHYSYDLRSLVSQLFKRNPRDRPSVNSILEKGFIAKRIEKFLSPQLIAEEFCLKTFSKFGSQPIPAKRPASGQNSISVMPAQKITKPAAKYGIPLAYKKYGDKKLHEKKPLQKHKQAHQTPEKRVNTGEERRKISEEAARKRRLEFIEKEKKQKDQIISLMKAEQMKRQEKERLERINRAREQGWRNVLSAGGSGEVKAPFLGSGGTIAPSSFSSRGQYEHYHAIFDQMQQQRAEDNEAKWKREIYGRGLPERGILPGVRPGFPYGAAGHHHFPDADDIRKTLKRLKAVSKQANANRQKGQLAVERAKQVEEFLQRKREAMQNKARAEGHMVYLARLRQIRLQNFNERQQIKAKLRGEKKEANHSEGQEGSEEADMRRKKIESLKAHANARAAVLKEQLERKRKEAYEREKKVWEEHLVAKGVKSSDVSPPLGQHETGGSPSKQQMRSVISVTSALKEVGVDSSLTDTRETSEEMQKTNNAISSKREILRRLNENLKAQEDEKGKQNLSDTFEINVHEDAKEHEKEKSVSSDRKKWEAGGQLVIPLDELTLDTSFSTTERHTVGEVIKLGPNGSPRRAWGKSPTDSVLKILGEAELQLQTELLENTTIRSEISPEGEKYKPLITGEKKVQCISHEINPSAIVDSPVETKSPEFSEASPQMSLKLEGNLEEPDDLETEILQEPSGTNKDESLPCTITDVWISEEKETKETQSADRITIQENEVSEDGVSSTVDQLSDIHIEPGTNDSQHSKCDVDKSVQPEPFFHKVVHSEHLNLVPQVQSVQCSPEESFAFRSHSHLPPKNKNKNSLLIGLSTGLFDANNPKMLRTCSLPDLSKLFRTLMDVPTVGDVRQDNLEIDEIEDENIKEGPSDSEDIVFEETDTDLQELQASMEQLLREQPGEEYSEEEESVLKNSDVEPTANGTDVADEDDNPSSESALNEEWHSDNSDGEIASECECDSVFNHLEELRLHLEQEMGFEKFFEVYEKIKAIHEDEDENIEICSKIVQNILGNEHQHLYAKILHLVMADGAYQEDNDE

[28] = biological target: PAK4 (human) (UniProt O96013)
[29] = biological target: PRKD2 (human) (UniProt Q9BZL6)
[30] = biological target: PRKG1 (human) (UniProt Q13976)
[31] = biological target: PRKX (human) (UniProt P51817)
[32] = biological target: SGK110 (human) (UniProt P0C264)
[33] = biological target: SIK2 (human) (UniProt Q9H0K1)
[34] = biological target: STK10 (human) (UniProt O94804)
Sequence of STK10 (human) (O94804 whole entry, looked up): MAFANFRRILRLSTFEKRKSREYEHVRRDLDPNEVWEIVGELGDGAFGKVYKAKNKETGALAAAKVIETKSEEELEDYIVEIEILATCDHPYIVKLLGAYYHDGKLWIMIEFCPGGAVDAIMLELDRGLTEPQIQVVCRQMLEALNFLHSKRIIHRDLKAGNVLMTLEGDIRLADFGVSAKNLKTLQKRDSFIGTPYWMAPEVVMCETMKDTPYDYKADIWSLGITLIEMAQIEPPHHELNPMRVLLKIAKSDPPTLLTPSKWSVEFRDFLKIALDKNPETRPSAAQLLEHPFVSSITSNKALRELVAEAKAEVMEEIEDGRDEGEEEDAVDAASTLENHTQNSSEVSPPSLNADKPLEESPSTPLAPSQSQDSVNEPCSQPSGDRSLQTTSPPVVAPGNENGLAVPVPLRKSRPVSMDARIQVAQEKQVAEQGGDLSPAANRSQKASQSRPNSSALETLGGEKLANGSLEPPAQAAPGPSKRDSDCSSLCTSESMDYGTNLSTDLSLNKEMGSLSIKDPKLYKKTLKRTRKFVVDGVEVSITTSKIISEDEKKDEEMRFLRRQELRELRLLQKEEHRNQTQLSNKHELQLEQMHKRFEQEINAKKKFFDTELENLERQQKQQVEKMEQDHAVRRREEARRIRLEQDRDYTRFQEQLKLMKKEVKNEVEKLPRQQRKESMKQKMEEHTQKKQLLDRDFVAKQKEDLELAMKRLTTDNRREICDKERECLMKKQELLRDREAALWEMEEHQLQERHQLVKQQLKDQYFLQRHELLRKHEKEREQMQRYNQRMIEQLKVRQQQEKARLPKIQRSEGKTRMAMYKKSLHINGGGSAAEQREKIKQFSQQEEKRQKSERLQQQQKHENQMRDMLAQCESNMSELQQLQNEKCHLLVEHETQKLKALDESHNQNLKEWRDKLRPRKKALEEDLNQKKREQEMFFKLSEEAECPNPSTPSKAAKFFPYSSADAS

[35] = biological target: STK32C (human) (UniProt Q86UX6)
[36] = biological target: STK36 (human) (UniProt Q9NRP7)
[37] = biological target: STK38L (human) (UniProt Q9Y2H1)
[38] = biological target: TESK1 (human) (UniProt Q15569)
[39] = biological target: TLK2 (human) (UniProt Q86UE8)
Sequence of TLK2 (human) (Q86UE8 whole entry, looked up): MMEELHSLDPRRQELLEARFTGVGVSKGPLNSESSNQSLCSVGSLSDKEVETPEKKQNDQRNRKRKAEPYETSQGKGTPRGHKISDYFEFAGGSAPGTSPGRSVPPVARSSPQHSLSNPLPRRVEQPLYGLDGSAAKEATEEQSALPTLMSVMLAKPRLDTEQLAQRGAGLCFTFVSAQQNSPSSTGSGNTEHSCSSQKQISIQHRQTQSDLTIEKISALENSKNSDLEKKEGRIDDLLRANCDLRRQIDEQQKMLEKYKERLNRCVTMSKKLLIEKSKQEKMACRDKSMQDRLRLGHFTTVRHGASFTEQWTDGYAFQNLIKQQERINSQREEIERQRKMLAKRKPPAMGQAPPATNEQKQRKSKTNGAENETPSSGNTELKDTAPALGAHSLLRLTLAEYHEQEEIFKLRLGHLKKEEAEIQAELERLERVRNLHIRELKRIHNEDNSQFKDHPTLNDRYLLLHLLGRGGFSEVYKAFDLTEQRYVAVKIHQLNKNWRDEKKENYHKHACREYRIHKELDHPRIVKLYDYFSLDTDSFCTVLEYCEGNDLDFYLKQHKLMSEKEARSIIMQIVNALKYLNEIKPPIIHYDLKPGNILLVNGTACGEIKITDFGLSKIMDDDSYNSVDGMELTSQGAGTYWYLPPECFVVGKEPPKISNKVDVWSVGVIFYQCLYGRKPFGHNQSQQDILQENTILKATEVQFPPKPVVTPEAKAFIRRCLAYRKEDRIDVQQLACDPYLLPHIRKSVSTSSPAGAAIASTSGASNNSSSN

[40] = biological target: TNK2 (human) (UniProt Q07912)
[41] = biological target: TNNI3K (human) (UniProt Q59H18)
[42] = biological target: TSSK1B (human) (UniProt Q9BXA7)

Sequence of ACVR1B (human) (P36896 whole entry, looked up): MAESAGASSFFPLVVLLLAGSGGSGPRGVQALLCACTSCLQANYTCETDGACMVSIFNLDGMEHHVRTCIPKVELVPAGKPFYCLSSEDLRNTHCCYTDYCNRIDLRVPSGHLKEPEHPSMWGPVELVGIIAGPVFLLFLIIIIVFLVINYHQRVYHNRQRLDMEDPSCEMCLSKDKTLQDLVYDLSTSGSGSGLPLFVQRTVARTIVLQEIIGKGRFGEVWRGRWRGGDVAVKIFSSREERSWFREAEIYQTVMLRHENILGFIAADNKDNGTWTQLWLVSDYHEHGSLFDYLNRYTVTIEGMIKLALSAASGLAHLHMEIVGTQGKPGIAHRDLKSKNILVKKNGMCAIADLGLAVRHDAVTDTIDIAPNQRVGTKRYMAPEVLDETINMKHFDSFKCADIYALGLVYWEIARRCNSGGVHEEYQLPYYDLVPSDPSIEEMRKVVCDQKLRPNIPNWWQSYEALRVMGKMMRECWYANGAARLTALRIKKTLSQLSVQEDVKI

COc1cc(N2CCC(O)CC2)ccc1Nc1ncc2c(n1)N1CCc3cccc(c31)C(=O)N2C
kinase still bound, per cent of control [1]: 100%
kinase still bound, per cent of control [2]: 100%
kinase still bound, per cent of control [3]: 100%
kinase still bound, per cent of control [4]: 61%
kinase still bound, per cent of control [5]: 100%
kinase still bound, per cent of control [6]: 100%
kinase still bound, per cent of control [7]: 100%
kinase still bound, per cent of control [8]: 95%
kinase still bound, per cent of control [9]: 100%
kinase still bound, per cent of control [10]: 88%
kinase still bound, per cent of control [11]: 88%
kinase still bound, per cent of control [12]: 100%
kinase still bound, per cent of control [13]: 92%
kinase still bound, per cent of control [14]: 95%
kinase still bound, per cent of control [15]: 95%
kinase still bound, per cent of control [16]: 100%
kinase still bound, per cent of control [17]: 100%
kinase still bound, per cent of control [18]: 100%
kinase still bound, per cent of control [19]: 94%
kinase still bound, per cent of control [20]: 75%
kinase still bound, per cent of control [21]: 51%
kinase still bound, per cent of control [22]: 97%
kinase still bound, per cent of control [23]: 86%
kinase still bound, per cent of control [24]: 100%
kinase still bound, per cent of control [25]: 99%
kinase still bound, per cent of control [26]: 98%
kinase still bound, per cent of control [27]: 60%
kinase still bound, per cent of control [28]: 90%
kinase still bound, per cent of control [29]: 45%
kinase still bound, per cent of control [30]: 85%
kinase still bound, per cent of control [31]: 91%
kinase still bound, per cent of control [32]: 100%
kinase still bound, per cent of control [33]: 100%
kinase still bound, per cent of control [34]: 100%
kinase still bound, per cent of control [35]: 75%
kinase still bound, per cent of control [36]: 100%
kinase still bound, per cent of control [37]: 94%
kinase still bound, per cent of control [38]: 100%
kinase still bound, per cent of control [39]: 94%
kinase still bound, per cent of control [40]: 23%
kinase still bound, per cent of control [41]: 100%
kinase still bound, per cent of control [42]: 74%

N=C1NC(=O)/C(=C/c2ccc(-c3cncc4ccccc34)o2)S1
kinase still bound, per cent of control [7]: 11%
kinase still bound, per cent of control [18]: 26%
kinase still bound, per cent of control [21]: 14%
kinase still bound, per cent of control [24]: 23%
kinase still bound, per cent of control [26]: 12%
kinase still bound, per cent of control [27]: 33%
kinase still bound, per cent of control [28]: 18%
kinase still bound, per cent of control [29]: 8.1%
kinase still bound, per cent of control [33]: 27%
kinase still bound, per cent of control [39]: 23%

N=C1NC(=O)/C(=C/c2c[nH]c(=O)c(-c3ccc(N4CCNCC4)nc3)c2)S1
kinase still bound, per cent of control [29]: 0.1%
kinase still bound, per cent of control [42]: 9.8%

CS(=O)(=O)Nc1ccc(-c2cncc(/C=C3\SC(=N)NC3=O)c2)cc1
kinase still bound, per cent of control [3]: 29%
kinase still bound, per cent of control [8]: 21%
kinase still bound, per cent of control [24]: 7.6%
kinase still bound, per cent of control [33]: 24%
kinase still bound, per cent of control [34]: 26%

O=C1NC(=S)S/C1=C\c1ccc(-c2cncc3ccccc23)o1
kinase still bound, per cent of control [3]: 32%
kinase still bound, per cent of control [5]: 34%
kinase still bound, per cent of control [7]: 10%
kinase still bound, per cent of control [21]: 20%
kinase still bound, per cent of control [22]: 23%
kinase still bound, per cent of control [24]: 31%
kinase still bound, per cent of control [27]: 31%
kinase still bound, per cent of control [37]: 29%
kinase still bound, per cent of control [39]: 26%
kinase still bound, per cent of control [40]: 34%

CN1C(=O)[C@H]2CCC[C@H]2N(C2CCCC2)c2nc(Nc3ccc(C(N)=O)cc3)ncc21
kinase still bound, per cent of control [5]: 26%
kinase still bound, per cent of control [26]: 15%
kinase still bound, per cent of control [32]: 30%

CS(=O)(=O)Nc1ccc(-c2ncc(/C=C3\SC(=N)NC3=O)s2)cc1
kinase still bound, per cent of control [1]: 28%
kinase still bound, per cent of control [2]: 4.6%
kinase still bound, per cent of control [34]: 6.8%
kinase still bound, per cent of control [36]: 20%

N=C1NC(=O)/C(=C/c2ccc(-c3ccc(F)cc3O)o2)S1
kinase still bound, per cent of control [25]: 32%

Nc1cccc(-c2cc(/C=C3\SC(=O)NC3=O)c[nH]c2=O)c1
kinase still bound, per cent of control [10]: 29%

CS(=O)(=O)Nc1ccc(-c2cc(/C=C3\SC(=N)NC3=O)c[nH]c2=O)cc1
kinase still bound, per cent of control [29]: 32%
